doi:10.1101/2022.02.04.479134, “A Suite of TMPRSS2 Assays for Screening Drug Repurposing Candidates as Potential Treatments of COVID-19” (bioRxiv, 2022)
“Also recorded” adds a separate entry of the source. Structures can show the parent of a compound that is named as a salt. Where two headings read alike, the source gives them in different places.

How the values were obtained:
[1] = tested on: SARS-CoV-2 spike pseudotyped particles (Delta variant B.1.617.2) entry into Calu-3 cells; assay: microbe, parasite or virus in culture; format: cell-based; conditions: for Emax: Severe acute respiratory syndrome coronavirus 2, Calu-3, read-out: SARS-CoV-2 PP (Delta) Max Response; for AC50: 48 h, N/D = Not Detected, read-out: SARS-CoV-2 PP (Delta) AC50; for inhibition of pseudotyped particle entry: variant not stated; for SARS-CoV-2 PP (Delta) Max Response: PP wells 0%, bald PP −100%
[2] = tested on: SARS-CoV-2 spike pseudotyped particles (WA1 + D614G) entry into Calu-3 cells; format: cell-based; conditions: for AC50: read-out: SARS-CoV-2 PP (WA1 + D614G) AC50
[3] = Severe acute respiratory syndrome coronavirus 2, Calu-3, variant not given, matches Delta values, read-out: IC50 blocking of entry into Calu-3 cells using pseudotyped particles with SARS-CoV-2 spike protein
[4] = Severe acute respiratory syndrome coronavirus 2, Calu-3 cells
[5] = Calu-3 cells, read-out: IC50 Delta pseudotyped particle entry
[6] = Severe acute respiratory syndrome coronavirus 2, Calu-3, read-out: IC50 Delta pseudotyped particle entry, Calu-3 cells

Row | Molecule | Emax [1] | AC50 [1, 4] | SARS-CoV-2 PP (WA1 + D614G) Max Response [2] | AC50 [2] | other results
1 | N=C(N)c1cccc(CC(NS(=O)(=O)c2cccc(-c3ccc(Cl)cc3Cl)c2)C(=O)N2CCC(CCN)CC2)c1 (centres unmarked) [Cmpd 92 (Meyer)] | 92% | 3.98 µM | -70% | 2.05 µM | IC50 [1, 3]: 4 µM
2 | CCOC(=O)c1ccc(OC(=O)CCCCCNC(=N)N)cc1 [Gabexate mesilate] |  |  |  |  | inhibition of pseudotyped particle entry ([1]; Calu-3 cells): inactive
3 | N=C(N)c1ccc2nc(-c3cc(CC(=O)N[C@@H](CC(=O)O)C(=O)O)cc(-c4cc(S(N)(=O)=O)ccc4O)c3O)[nH]c2c1 [PCI-27483] | -66% | 15.8 µM | -66% | 16.5 µM | 
4 | N=C(N)c1ccc2cc(OC(=O)c3ccc(N=C(N)N)cc3)ccc2c1 [Nafamostat mesilate] | -100% | 0.0014 µM | -100% |  | IC50 [1, 5]: 0.0014 µM; IC50 [1, 6]: 0.00142 µM
5 | G-007-LK |  |  | -73% | 0.5 µM | AC50 ([1]; Calu-3 cells): 1 µM; SARS-CoV-2 PP (Delta) Max Response ([1]; Calu-3 cells): -67%
6 | Dibromopropamidine Dihydrochloride |  |  | -44% | 19.5 µM | AC50 ([1]; Calu-3 cells): 19.2 µM; SARS-CoV-2 PP (Delta) Max Response ([1]; Calu-3 cells): -49%
7 | Marizomib / Salinosporamide A |  |  | -100% | < 0.05 µM | AC50 ([1]; Calu-3 cells): < 0.05 µM; SARS-CoV-2 PP (Delta) Max Response ([1]; Calu-3 cells): -100%
8 | CN(C)C(=O)COC(=O)Cc1ccc(OC(=O)c2ccc(NC(=N)N)cc2)cc1 [Camostat] | -92% | 0.059 µM | -95% | 0.05 µM | IC50 [1, 5]: 0.059 µM; IC50 [1, 6]: 0.0588 µM; IC50 ([2]; read-out: IC50 WA1 + D614G pseudotyped particle entry): 0.05 µM
9 | AGN194310 |  |  | -87% | 22 µM | AC50 ([1]; Calu-3 cells): 38.4 µM; SARS-CoV-2 PP (Delta) Max Response ([1]; Calu-3 cells): -86%
10 | CC(C)C[C@H](NC(=O)[C@H](Cc1ccccc1)NC(=O)c1cnccn1)B(O)O [Bortezomib] | -100% | < 0.05 µM | -100% | < 0.05 µM | IC50 ([1]; Severe acute respiratory syndrome coronavirus 2, Calu-3, Calu-3 cells, apparent, due to cytotoxicity, read-out: IC50 inhibition of viral entry (variant not stated)): < 0.05 µM
11 | O=c1ccc2ccc(O)cc2o1 [7-Hydroxycoumarin] |  |  |  |  | inhibition of pseudotyped particle entry ([1]; Calu-3 cells): lack of activity; also recorded: nor any inhibition of pseudotyped particle entry
12 | COC(=O)N[C@H](C(=O)N1CCC[C@H]1c1nc(-c2ccc(-c3ccc(-c4c[nH]c([C@@H]5CCCN5C(=O)[C@@H](NC(=O)OC)C(C)C)n4)cc3)cc2)c[nH]1)C(C)C [Daclatasvir dihydrochloride] | -100% | 32.9 µM | -100% | 39 µM | 
13 | NC[C@H]1CC[C@H](C(=O)Oc2ccc(CCC(=O)O)cc2)CC1 [Cetraxate HCl] | 30% | 23.3 µM |  |  | 
14 | N=C(N)c1cccc(CC(NS(=O)(=O)c2cccc(-c3ccc(Cl)cc3Cl)c2)C(=O)N2CCC(NC(=O)NC3CCCCC3)CC2)c1 (centres unmarked) [Cmpd 114 (Meyer)] | 99% | 15.3 µM | -88% | 5.35 µM | IC50 [1, 3]: 15 µM
15 | COC(=O)[C@H](Cc1cccc(C(=N)N)c1)[C@@H](C)NC(=O)c1ccc(-c2cc[n+]([O-])cc2)cc1 [Otamixaban] | 54% | 18 µM | -50% | 20 µM | 
